Test results reported in US20180235934A1, “NORADRENERGIC DRUG TREATMENT OF OBSTRUCTIVE SLEEP APNEA” (Massachusetts Institute of Technology, priority 2015, published 2018).

Columns and labels:
[1] = tested on: urethane-anesthetized rats; assay: Hypoglossal nerve activity and hLTF under spontaneous REM sleep with episodic airway occlusion; assay type: in vivo, rat
Method: (§1) Recurrent obstructive apneas during spontaneous breathing in urethane-anesthetized rats were simulated by applying 10 or 12 episodes of airway occlusion at one episode per min.
(§2) All values are expressed as mean±SE.
Experiments were performed on 5 adult male rats (body weight 270-550 g) under urethane anesthesia, pancuronium paralysis and artificial ventilation. Unlike other anesthetics, urethane anesthesia retains the sleep-like alternations in brain state and in breathing pattern and chemosensitivity similar to those seen in natural sleep^58-59 (including state-dependent modulations of GG and abdominal respiratory-related activities^40), while also circumventing the highly fragmented natural sleep pattern in rodents^40. As shown in FIGS. 12A-12B, during periods of REM-like sleep (as indicated by increased hippocampal activity) hypoglossal nerve discharge was markedly depressed (by 44.8±9.1%, P<0.01). […] In addition, episodic end-expiratory airway occlusion (lasting 15 seconds each, 1 episode per minute; FIG. 12A, arrows) caused marked time-dependent increases in the amplitude of hypoglossal nerve discharge during each airway occlusion episode.

[2] = tested on: urethane-anesthetized rats; assay: Hypoglossal nerve activity and hLTF under carbachol (cholinergic)-induced REM sleep-like state with episodic airway occlusion; assay type: in vivo, rat
From the text: (§3) The EMGs were amplified (CyberAmp 380, Axon Instruments, Union City), integrated (time constant 0.1 s, MA821 RSP Moving Averager, CWE) and sampled at 10 KHz into a Dell PC with LabView software (National Instruments, Austin, Tex.).
A REM sleep-like state in urethane-anesthetized rats was induced by microinjection of the cholinergic agonist carbachol at unilateral dorsomedial pons^1,14 and was detected by the decrease of hypoglossal/GG EMG activity and the appearance of hippocampal theta discharge. The latter was recorded by using a parallel bipolar wire electrode inserted into the hippocampal CA1 region at the following stereotaxic coordinates: 3.7 mm caudal from Bregma, 2.2 mm lateral from midline, and depth of 2.4 mm from brain surface.
as §1, §2

[3] = clinically recommended dose range; cited from earlier work
[4] = tested on: urethane-anesthetized rats; assay: Hypoglossal amplitude and obstructive apnea-induced hLTF after yohimbine, focal at bilateral A7 and A5 regions or intravenous (no REM induction); assay type: in vivo, rat
From the text: Recurrent obstructive apneas during spontaneous breathing in urethane-anesthetized rats were simulated by applying 10 or 12 episodes of airway occlusion at one episode per min. […] All values are expressed as mean±SE.

healthy subjects = details: cited from earlier work
[5] = tested on: urethane-anesthetized spontaneously breathing rats
Method: All experimental protocols were reviewed and approved by the responsible Committee on Animal Care in accordance with published guidelines. Experiments were performed on 45 male adult Sprague-Dawley rats (300-400 g, Charles River Laboratories, Wilmington, Mass.) under urethane anesthesia (initial dose 1.5 g/kg, i.p.; supplemental dose 1/10 of initial dose, i.p. or i.v. when necessary). The femoral vein and artery were cannulated for intravenous infusion and blood pressure monitoring, respectively. Rectal temperature was maintained at 36.5-37.5° C. with a thermostatic heating pad.
After sub-laryngeal tracheal cannulation with a Y-shaped tracheal cannula, two isolated silver wires (O.D. 0.127 mm) were implanted into the genioglossus and diaphragm for EMG recording. The wire tips were exposed for 1 mm and separated by approximately 5 mm once inserted into the muscle. In some rats, the medial branch of the hypoglossal nerve (which innervates the GG and other tongue protrusion muscles) and phrenic nerve (which innervates the diaphragm) were isolated and severed. After the rat was mounted onto the stereotaxic frame, the central end of the nerve was exposed from the back of the neck (dorsal approach) and mounted onto parallel bipolar wire electrodes for recording. These rats were artificially ventilated with oxygen-enriched (40% O2) medical air and paralyzed with pancuronium bromide.
as §3, with “Tex.). The recordings were stabilized for at least 1 hour before any data collection and experimental manipulations were performed.” for “Tex.).”
For brain microinjections, an occipital craniostomy was performed to expose the brain surface. A glass micropipette (tip O.D. 10-20 μm) filled with chemical solution was inserted to the target structure according to its stereotaxic coordinates. Injections (25-50 nl per injection) were performed by applying pressure pulses to the micropipette and confirmed by the movement of the intrapipette solution meniscus. All chemicals were purchased from Sigma-Aldrich (Sigma, St. Louis, Mo.) and dissolved in ACSF at concentration of 10 mM. Stereotaxic coordinates of the A7 region: 2.3-2.6 mm from midline, 0-0.5 mm rostral from interaural level, 8.0-8.5 mm from lambda surface; A5 region: 0-0.5 mm caudal from interaural level, 2.2-2.7 mm from midline, 9.5-10 mm from lambda surface; dorsomedial pons: 1-1.5 mm from midline, 0.2-0.7 mm rostral from interaural level, 7.5-8.5 mm from lambda surface.
Recurrent obstructive apneas during spontaneous breathing in urethane-anesthetized rats were simulated by applying 10 or 12 episodes of airway occlusion at one episode per min. Each episode of airway occlusion started from the end of an expiration (in spontaneous breathing rats as described in Tadjalli et al., J Neurosci 30, 16886-16895 (2010)^5) or lung deflation (in ventilated rats) and lasted 10-12 sec. […]
The amplitudes of the integrated genioglossus EMG (or hypoglossal nerve discharge) and integrated diaphragm EMG (or phrenic nerve discharge) recordings in each respiratory cycle were measured and normalized to the control baseline values. All values are expressed as mean±SE. […]

[6] = tested on: TH-cre transgenic Sprague-Dawley rats; assay: Episodic optogenetic stimulation of A7 neurons, HM activity and hLTF; details: 0.5 mg/kg i.v.
[7] = intravenous 0.5 mg/kg, n=5, vs control n=12
[8] = injection at bilateral A7 region

SMILES: CC1c2ccccc2CN1CC1=NCCN1 (stereo not shown) [BRL44408, 2-[2H-(1-Methyl-1,3-dihydroisoindole)methyl]-4,5-dihydroimidazole]
- hypoglossal discharge (baseline) during spontaneous REM-like sleep ([1]; 0.2 mg/kg i.v., 5 rats): effectively restored the hypoglossal discharge to normal baseline level
- hypoglossal activity before, during or after episodic airway occlusion ([1]; 0.2 mg/kg i.v., throughout spontaneous REM sleep): at or above normal baseline level

SMILES: COC(=O)[C@@H]1[C@H]2C[C@H]3c4[nH]c5ccccc5c4CCN3C[C@@H]2CC[C@@H]1O [yohimbine, Yohimbine]
- dose that effectively rescued first- and second-line motor defenses against OSA under REM sleep ([1]; i.v., rats, REM sleep): > 0.25 mg/kg
- baseline HM activity ([2]; systemic yohimbine 0.5-1.0 mg/kg i.v., cholinergic-induced REM sleep, n=7, P<0.01): rise of baseline HM activity above the control level
- obstructive apnea-induced hLTF ([2]; systemic yohimbine 0.5-1.0 mg/kg i.v., cholinergic-induced REM sleep, up to 20 min after episodic obstructive apnea): potently reversed the blunting of obstructive apnea-induced hLTF
- effect on REM sleep [3]: does not disrupt REM sleep
- weight gain [3]: does not disrupt REM sleep or cause weight gain
- baseline HM activity ([4]; focal injection at bilateral A7 and A5 regions (50 nl at 2.5 mM per site), n=5, P<0.01): significant increase of baseline HM activity
- hLTF during obstructive apnea episodes and up to 20 min afterwards ([4]; focal injection at bilateral A7 and A5 regions, P<0.05): enhancement of hLTF
- baseline hypoglossal amplitude before episodic airway occlusion [4, 7]: augmented baseline hypoglossal amplitude
- hypoglossal amplitude during first and last airway occlusion episodes and 5 and 20 min after [4, 7]: facilitated hypoglossal amplitude

SMILES: CNCCCN1c2ccccc2CCc2ccccc21 [desipramine]
- tonic component of GG activity (healthy subjects; healthy subjects, non-REM sleep): increased the tonic component of GG activity
- inspiratory-phasic component of GG activity (healthy subjects; healthy subjects): failed to increase the inspiratory-phasic component of GG activity
- effect on REM sleep (healthy subjects; in vivo): inhibit REM sleep

SMILES: Clc1cccc(Cl)c1N=C1NCCN1 [clonidine]
- tonic component of GG activity recruited during airway obstruction ([5]; application at bilateral A7 or A5 region): strongly suppressed
- baseline genioglossus activity ([5]; injection at bilateral A5 region, n=6): not significantly reduced
- facilitation of hypoglossal activity during airway occlusion [5, 8]: markedly attenuated
- hypoglossal long-term facilitation [5, 8]: totally abolished
- integrated genioglossus EMG amplitude, reduction from pre-injection baseline ([5]; injection at bilateral A7 region (~50 nl at 5 mM per site)): ~12%

SMILES: C[N+](C)(C)CCOC(N)=O [carbachol]
- respiratory-related hypoglossal activity, decrease on transition to REM-like sleep ([2]; focal carbachol injection at pontine dorsomedial reticular formation, vagi-intact rats): ~39%

SMILES: COc1cc2nc(N3CCN(C(=O)c4ccco4)CC3)nc(N)c2cc1OC [prazosin]
- HM activity [6]: decreased
- hLTF after episodic optogenetic stimulation of A7 neurons [6]: no longer resulted in hLTF
